From patent US20200115446A1 (NATIONAL UNIVERSITY CORPORATION HOKKAIDO UNIVERSITY, priority 2017, published 2020)
“Also recorded” adds a separate entry of the source.

Experiments:
Assay type in all cases: in vivo, rat
[1] = Head trunk length and femur length, growing healthy rats; conditions: age of 12 weeks, vs. Ct1 group
Description: (§1) 6-week-old growing male F344 rats were used.
(§2) (2) Experimental Groups (n=10 in Each Group) (i) Control group (hereinafter, referred to as “Ct1 group”) (ii) Anti-Siglec-15 antibody administration group (hereinafter, referred to as “Sig-15 Ab administration group”): The #32A1 antibody was used as an anti-Siglec-15 antibody. The anti-Siglec-15 antibody was subcutaneously administered once every 3 weeks at a dosage of 0.25, 1 or 4 mg/kg.
(§3) 6 weeks after the start of administration (age of 6 weeks to age of 12 weeks). After the end of the period (age of 12 weeks), the animals were euthanized, and evaluation was performed.
(§4) The head trunk length was measured 0, 3 and 6 weeks after administration. The body weight was measured once a week.
(§5) The femur length was measured under anesthesia every 3 weeks by micro-CT imaging.
(§6) Micro-CT imaging of the femur, the tibia and the fifth lumber vertebra was performed, and the right femur major axis length was measured.

serum TRACP-5b [2] = assay: Bone resorption marker (serum TRACP-5b) by ELISA, growing healthy rats; conditions: age of 12 weeks
Description: as §1, §2, §3
(§7) Before the start of administration, and 6 weeks after administration and before euthanasia, blood was collected from the tail vein, and the values of a bone formation marker (serum osteocalcin) and a bone resorption marker (serum TRACP-5b) were measured by an ELISA method.

serum osteocalcin [3] = assay: Bone formation marker (serum osteocalcin) by ELISA, growing healthy rats; conditions: age of 12 weeks, vs. Ct1 group
Description: as §1, §2, §3, §7

[4] = tested on: growth cartilage and primary spongiosa region; assay: Micro-CT and histological evaluation of growth at the proximal tibia, growing healthy rats
Description: as §1, §2, §3
For bone labeling, calcein was administered 7 days before and 3 days before euthanasia (at an interval of 4 days). The calcein was dissolved in a 1.4% sodium bicarbonate solution at a concentration of 10 mg/ml, and subcutaneously injected to each animal at a dosage of 10 mg/kg.
as §6
Non-decalcified hard tissue sample: a coronal section tissue of proximal left tibia ½ (length: about 1.5 cm) was used. The tissue was immersed and fixed in 70% ethanol, and then stored in a cool and dark place. The resulting non-decalcified hard tissue sample was used for Villanueva staining, bright-field observation and fluorescent observation, and quantitative bone morphometry.
(§8) Decalcified tissue sample: knee joint disarticulation was performed, and samples of a coronal section tissue of the proximal tibia (proximal right knee tibia ½) and a fifth lumber vertebra coronal section tissue were prepared.
With the non-decalcified hard tissue sample and the decalcified tissue sample, the growth cartilage plate width and the longitudinal growth rate were histologically measured to evaluate growth disorder (“Modern Bone Histomorphometry”, 2014, WENET, Inc.).
(§9) Osteoclastic cells were detected and evaluated by chemical staining with tartrate-resistant acid phosphatase (TRACP) (hereinafter, referred to as “TRACP staining”) and counter staining with methyl green. The growth cartilage part was detected and evaluated by safranine O staining (staining of acidic mucopolysaccharide).

osteoclasts [5] = assay: TRACP staining of osteoclasts, growing healthy rats; conditions: age of 12 weeks, vs. Ct1 group
Description: as §1, §2, §3, §8, §9

[6] = Bone mass (micro-CT) and bone mineral density (DXA), growing healthy rats; conditions: for BMD value (DXA) / trabecular bone mass (3D-CT): vs. Ct1 group
Description: as §1, §2, §3, §6
BMD measurement of the lumber vertebra (first to third lumber vertebrae) and the left distal femur end was performed by dual energy X-ray absorptiometric (DXA) method using a bone mineral density measuring apparatus (manufactured by Hitachi Aloka Medical, Ltd.).

[7] = Compression mechanical test of lumber vertebral body and distal femur metaphysis, growing healthy rats; conditions: age of 12 weeks, vs. Ct1 group
Description: as §1, §2, §3
The second, third, fourth and sixth lumber vertebral bodies and the distal metaphysis of the left femur were subjected to a compression test, and the ultimate load (maximum load endured before fracture), stiffness (resistance to deformation) and toughness (energy required before fracture) were evaluated.

[8] = Body weight, head trunk length and femur length, pediatric steroid-induced osteoporosis model rats; conditions: GC model rats
Description: (§10) 6-week-old growing female LEW/Cr1Crlj rats were used.
(§11) On the other hand, a steroid-induced osteoporosis model with rats has not been established. Thus, in this Example, a model rat with Prednisolone 25 mg/pellet/60 days implanted under the skin of a 6-week-old female LEW/Cr1Crlj rat was employed as a pediatric steroid-induced osteoporosis model. In this model, it was confirmed that 2, 4 and 6 weeks after implantation of prednisolone, the femur BMD decreased, and the maximum stress of each of the femur and the lumber vertebra decreased.
(§12) (3) Experimental Group (n=10 in Each Group) (i) Sham group: Sham-operation+Vehicle (PBS) (subcutaneous administration) (ii) GC group: Prednisolone (PSL) pellet 25 mg/pellet/60 days-subcutaneous implantation (GC)+Vehicle (PBS) (subcutaneous administration) (iii) GC+Siglec-15Ab group: GC treatment was performed, and an anti-Siglec-15 antibody was subcutaneously administered once every 3 weeks at a dosage of 1 mg/kg (low dosage) or at a dosage of 10 mg/kg (high dosage). The #32A1 antibody was used as the anti-Siglec-15 antibody.
as §3, §4, §5
(§13) Micro-CT imaging of the femur and the tibia was performed, and the right femur length was measured.

serum TRACP-5b [9] = assay: Bone resorption marker (serum TRACP-5b) by ELISA, pediatric steroid-induced osteoporosis model rats; conditions: after 6 weeks (age of 12 weeks)
Description: as §10, §11
as §12, with “antibody. […]” for “antibody.”
(§14) Before the start of administration, and 6 weeks after administration and before euthanasia, blood was collected from the tail vein, and the values of a bone formation marker (serum osteocalcin) and a bone resorption marker (serum TRACP-5b) in the blood were measured by an ELISA method.

serum osteocalcin [10] = assay: Bone formation marker (serum osteocalcin) by ELISA, pediatric steroid-induced osteoporosis model rats; conditions: GC model rats, age of 12 weeks, vs. GC group
Description: as §10, §11
as §12, with “antibody. […]” for “antibody.”
as §14

[11] = tested on: growth cartilage and primary spongiosa region; assay: Micro-CT and histological evaluation of growth at the proximal tibia, pediatric steroid-induced osteoporosis model rats; conditions: GC model rats
Description: as §10, §11, §12, §3
For bone labeling, tetracycline was administered 5 days before euthanasia, and calcein was administered 2 days before euthanasia (at an interval of 3 days). The animals were killed 36 hours after calcein administration. […]
as §13
Non-decalcified hard tissue sample: a coronal section tissue of proximal left tibia ½ (length: about 1.5 cm) was used. […] The non-decalcified hard tissue sample was stained by Villanueva staining and was used for bright-field observation and fluorescent observation, and quantitative bone morphometry. […]
Regarding growth disorder, there was the possibility that administration over a period of 6 weeks would not cause a change leading to generation of a difference in femur length, and therefore the growth cartilage plate width and the longitudinal growth rate were histologically measured using the non-decalcified tissue and the decalcified tissue to evaluate growth disorder (“Modern Bone Histomorphometry”, 2014, WENET, Inc.).
In FIG. 10-1(B), the part labeled in parallel to the growth cartilage and at a distal position represents the region labeled 2 days before euthanasia (white lower arrow), and the part labeled in parallel and at a further distal position represents the region labeled 5 days before euthanasia (white upper arrowhead). The bone growth rate was evaluated on the basis of the distance between the two labeled regions.

osteoclasts [12] = assay: TRACP staining of osteoclasts in the primary spongiosa region, pediatric steroid-induced osteoporosis model rats; conditions: GC model rats, proximal tibia, age of 12 weeks, vs. GC group (ALN also vs. Sham group)
Description: as §10, §11, §12
(§15) 6 weeks after the start of administration (age of 6 weeks to age of 12 weeks). After the end of the period (age of 12 weeks), the animals were euthanized, and evaluation was performed. […]

[13] = Bone mass (micro-CT, bone microstructure analysis) and BMD (DXA) of the distal femur, pediatric steroid-induced osteoporosis model rats; conditions: GC model rats, age of 12 weeks
Description: (3) Experimental Group (n=10 in Each Group) (i) Sham group: Sham-operation+Vehicle (PBS) (subcutaneous administration) (ii) GC group: Prednisolone (PSL) pellet 25 mg/pellet/60 days-subcutaneous implantation (GC)+Vehicle (PBS) (subcutaneous administration) (iii) GC+Siglec-15Ab group: GC treatment was performed, and an anti-Siglec-15 antibody was subcutaneously administered once every 3 weeks at a dosage of 1 mg/kg (low dosage) or at a dosage of 10 mg/kg (high dosage). […] (iv) GC+ALN group: GC treatment was performed, and ALN was subcutaneously administered twice a week at a dosage of 0.014 mg/kg (low dosage) or at a dosage of 0.140 mg/kg (high dosage).
BMD and BMC measurements of the lumber vertebra and the distal left femur were performed by a DXA method using a bone densitometer (manufactured by Hitachi Medical, Ltd.).

[14] = Compression test of the distal femur end, pediatric steroid-induced osteoporosis model rats; conditions: GC model rats, age of 12 weeks, vs. GC group
Description: as §10, §11, §12, §15

[15] = Confirmation of the prednisolone pellet model of pediatric steroid-induced osteoporosis; conditions: 2, 4 and 6 weeks after implantation of Prednisolone 25 mg/pellet/60 days
Description: as §11
Prednisolone 25 mg/pellet/60 days is administered at a dose of 0.42 mg a day. This dose is equivalent to 3.5 mg/kg/day for a 6-week-old rat (body weight: 120 g), and equivalent to 105 mg/day for a child having a body weight of 30 kg.

[16] = proximal tibia, age of 12 weeks, vs. Ct1 group
[17] = lumber vertebra, age of 12 weeks
[18] = distal femur metaphysis compression test
[19] = lumber vertebra compression test
[20] = age of 6 weeks to 12 weeks, vs. GC group
[21] = high-dosage administration group
[22] = proximal tibia, age of 12 weeks, vs. Sham, GC and GC+Siglec-15 Ab groups

SMILES: NCCCC(O)(P(=O)(O)O)P(=O)(O)O [ALN, Alendronate]
- femur length [1]: decreased
- head trunk length [1]: decreased
- serum TRACP-5b level (serum TRACP-5b [2]): decreased depending on the dosage
- serum osteocalcin level (serum osteocalcin [3]): not significantly different
- growth cartilage plate width (3D-CT image) ([4]; age of 12 weeks, ALN particularly high dosage): decreased
- shape of the proximal tibia in 3D-CT images ([4]; age of 12 weeks, vs. Ct1 group, ALN particularly high dosage): cup-like shape
- arrangement of safranine O staining positive growth cartilage regions ([4]; proximal tibia, age of 12 weeks): disordered arrangement
- growth cartilage width (tissue sample) [4, 16]: decreased; also recorded: significantly inferior
- safranine O staining positive regions in the bone in the primary spongiosa region [4, 16]: expanded
- bone growth rate ([4]; proximal tibia, calcein labeling 7 and 3 days before euthanasia, vs. Ct1 group): low bone growth rate; also recorded: significantly inferior
- number of TRACP positive cells in the secondary spongiosa region (osteoclasts [5]; lumber vertebra): decreased
- number of TRACP positive cells in primary spongiosa region (osteoclasts [5]; proximal tibia): evidently decreased
- number of TRACP positive cells in secondary spongiosa region (osteoclasts [5]; proximal tibia): decreased
- BMD value (DXA) ([6]; distal femur, age of 12 weeks): increased depending on the dosage
- trabecular bone mass (3D-CT) ([6]; distal femur, age of 12 weeks): increased depending on the dosage
- bone trabecular thickness (histological) ([6]; long bone, particularly high-dosage group): increased
- bone mass in the primary spongiosa (3D-CT) [6, 17]: particularly increased
- BMD value (DXA) [6, 17]: increased depending on the dosage
- trabecular bone mass (3D-CT) [6, 17]: increased depending on the dosage
- stiffness [7, 18]: increased in a dosage-dependent manner
- toughness [7, 18]: increased in a dosage-dependent manner
- ultimate load [7, 18]: increased in a dosage-dependent manner
- stiffness [7, 19]: significantly increased
- ultimate load [7, 19]: significantly increased
- amount of change in body weight [8, 20]: no significant difference
- amount of change in femur length [8, 20]: no significant difference
- amount of change in head trunk length [8, 20]: no significant difference
- femur length [8, 21]: tended to decrease
- head trunk length [8, 21]: tended to decrease
- serum TRACP-5b level (serum TRACP-5b [9]; GC model rats, in contrast to GC group): significantly decreased
- serum osteocalcin level (serum osteocalcin [10]): not significantly different
- shape of the proximal tibia in 3D-CT images ([11]; age of 12 weeks, vs. Sham group, ALN high dosage): cup-like (cupping) shape
- growth cartilage width [11, 22]: tended to slightly decrease, but was not statistically significantly different
- safranine O staining positive regions (cartilage matrix) in the bone in the primary spongiosa region [11, 22]: more safranine O staining positive (red) regions
- bone growth rate ([11]; proximal tibia, tetracycline/calcein labeling, among Sham, GC and treated groups): no significant difference
- number of TRACP positive cells in the primary spongiosa region (osteoclasts [12]): significantly decreased
- BMD of the distal femur (DXA) ([13]; vs. GC group): increased in a dosage-dependent manner
- bone mass (3D-CT), region immediately above the growth plate to the proximal femur ([13]; distal femur metaphysis): increased in a dosage-dependent manner
- bone mass (BV/TV) ([13]; secondary spongiosa region of distal femur, vs. GC group, ALN high dosage): significantly increased
- maximum stress [14]: tended to increase, and were not significantly different
- toughness [14]: tended to increase, and were not significantly different

SMILES: C[C@]12C=CC(=O)C=C1CC[C@@H]1[C@@H]2[C@@H](O)C[C@@]2(C)[C@H]1CC[C@]2(O)C(=O)CO [prednisolone, Prednisolone]
- increase of the level of TRACP-5b (serum TRACP-5b [9]; GC group (prednisolone pellet + vehicle)): 75%
- maximum stress of the femur [15]: decreased
- maximum stress of the lumber vertebra [15]: decreased
- femur BMD ([15]; 6-week-old female rat): decreased
